In patent US12544395B2, “Combination compositions comprising a beta-lactamase inhibitor and uses thereof” (priority 2018, dated 2026):

Test system: four beta-lactamase expressing Enterobacteriaceae (1 KPC, 1 p99, 1 CTX-M-15, and 1 OXA-48)
Assay: Time-kill kinetic analyses
Format: cell-based
Conditions: Compound 2 fixed at 4 μg/mL, 24 hours
Experimental: Activity was determined against four beta-lactamase expressing Enterobacteriaceae (1 KPC, 1 p99, 1 CTX-M-15, and 1 OXA-48). […] Macrodilution tubes were incubated with shaking and bacterial amounts were quantified at 0, 2, 4, 6, 8, and 24 hours by limiting dilutions. Amoxicillin/clavulanic acid (2:1) was used as a comparator oral antibacterial.

SMILES: CCC(=O)N[C@H]1Cc2cccc(C(=O)O)c2OB1O [Compound 2, (R)-2-hydroxy-3-propionamido-3,4-dihydro-2H-benzo[e][1,2]oxaborinine-8-carboxylic acid]
- rescue of ceftibuten to cidality in time-kill: able to rescue ceftibuten to a cidal endpoint through 24 hours
